What all share (assay): NADH oxidation at […] nm, reductive amination of 2-oxoglutarate
What all share (assay type): biochemical

In experiment [1] the target is hGDH2 (human glutamate dehydrogenase isozyme 2) (Homo sapiens, UniProt P49448).
Experiment [2] has as its target hGDH2 (human glutamate dehydrogenase isozyme 2) (Homo sapiens, UniProt P49448, C146A).
The target in experiment [3] is hGDH2 (human glutamate dehydrogenase isozyme 2) (Homo sapiens, UniProt P49448, C327A).
Experiment [4] has as its target hGDH2 (human glutamate dehydrogenase isozyme 2) (Homo sapiens, UniProt P49448, C172A).
Experiment [5] has as its target hGDH2 (human glutamate dehydrogenase isozyme 2) (Homo sapiens, UniProt P49448, C254A).
Experiment [6] addresses hGDH2 (human glutamate dehydrogenase isozyme 2) (Homo sapiens, UniProt P49448, C112A).

Structures are written as SMILES.

One may read the IC50 as the midpoint of a concentration-inhibition curve. Low readings indicate higher potency, high ones lower potency.

Chain of hGDH2 (human glutamate dehydrogenase isozyme 2) (Homo sapiens, UniProt P49448, C254A) (P49448 54-558 C254A): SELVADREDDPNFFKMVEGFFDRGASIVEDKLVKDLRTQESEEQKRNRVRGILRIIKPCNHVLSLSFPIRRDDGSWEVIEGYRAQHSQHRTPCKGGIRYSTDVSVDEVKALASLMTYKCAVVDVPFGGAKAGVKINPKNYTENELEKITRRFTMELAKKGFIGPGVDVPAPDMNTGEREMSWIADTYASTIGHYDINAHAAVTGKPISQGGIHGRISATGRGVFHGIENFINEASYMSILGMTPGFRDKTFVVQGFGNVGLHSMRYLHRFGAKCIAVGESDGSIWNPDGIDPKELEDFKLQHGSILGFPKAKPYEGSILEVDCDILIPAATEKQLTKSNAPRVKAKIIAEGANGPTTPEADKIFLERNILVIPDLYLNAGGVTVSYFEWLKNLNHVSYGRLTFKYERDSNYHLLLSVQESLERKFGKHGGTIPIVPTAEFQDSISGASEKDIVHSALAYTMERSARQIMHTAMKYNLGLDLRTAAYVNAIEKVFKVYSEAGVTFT
Chain of hGDH2 (human glutamate dehydrogenase isozyme 2) (Homo sapiens, UniProt P49448, C327A) (P49448 54-558 C327A): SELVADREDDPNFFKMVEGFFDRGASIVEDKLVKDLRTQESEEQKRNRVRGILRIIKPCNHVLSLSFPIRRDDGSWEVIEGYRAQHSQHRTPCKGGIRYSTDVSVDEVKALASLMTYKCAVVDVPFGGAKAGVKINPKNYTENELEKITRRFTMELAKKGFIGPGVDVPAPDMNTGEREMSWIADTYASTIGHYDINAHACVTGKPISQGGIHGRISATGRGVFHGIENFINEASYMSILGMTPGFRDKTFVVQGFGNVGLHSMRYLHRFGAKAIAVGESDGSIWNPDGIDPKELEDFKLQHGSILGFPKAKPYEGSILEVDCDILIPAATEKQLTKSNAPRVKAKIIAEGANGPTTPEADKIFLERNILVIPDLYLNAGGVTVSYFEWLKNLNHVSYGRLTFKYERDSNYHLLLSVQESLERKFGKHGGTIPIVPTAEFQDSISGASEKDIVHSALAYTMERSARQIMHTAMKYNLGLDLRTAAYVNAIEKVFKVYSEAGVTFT
Chain of hGDH2 (human glutamate dehydrogenase isozyme 2) (Homo sapiens, UniProt P49448, C112A) (P49448 54-558 C112A): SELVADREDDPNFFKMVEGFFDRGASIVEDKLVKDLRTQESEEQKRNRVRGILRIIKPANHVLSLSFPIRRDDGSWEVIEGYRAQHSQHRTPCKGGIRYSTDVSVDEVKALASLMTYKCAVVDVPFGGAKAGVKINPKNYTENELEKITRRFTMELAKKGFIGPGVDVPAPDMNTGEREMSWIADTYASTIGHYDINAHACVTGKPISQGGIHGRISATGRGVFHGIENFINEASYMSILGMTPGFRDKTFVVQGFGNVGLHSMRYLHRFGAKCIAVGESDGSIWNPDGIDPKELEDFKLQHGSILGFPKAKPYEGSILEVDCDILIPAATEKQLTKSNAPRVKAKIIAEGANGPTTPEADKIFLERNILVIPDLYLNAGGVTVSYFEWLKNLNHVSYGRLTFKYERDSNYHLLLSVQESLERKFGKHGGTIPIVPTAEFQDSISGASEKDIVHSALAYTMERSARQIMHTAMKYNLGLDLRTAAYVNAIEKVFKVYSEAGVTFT
Chain of hGDH2 (human glutamate dehydrogenase isozyme 2) (Homo sapiens, UniProt P49448, C146A) (P49448 54-558 C146A): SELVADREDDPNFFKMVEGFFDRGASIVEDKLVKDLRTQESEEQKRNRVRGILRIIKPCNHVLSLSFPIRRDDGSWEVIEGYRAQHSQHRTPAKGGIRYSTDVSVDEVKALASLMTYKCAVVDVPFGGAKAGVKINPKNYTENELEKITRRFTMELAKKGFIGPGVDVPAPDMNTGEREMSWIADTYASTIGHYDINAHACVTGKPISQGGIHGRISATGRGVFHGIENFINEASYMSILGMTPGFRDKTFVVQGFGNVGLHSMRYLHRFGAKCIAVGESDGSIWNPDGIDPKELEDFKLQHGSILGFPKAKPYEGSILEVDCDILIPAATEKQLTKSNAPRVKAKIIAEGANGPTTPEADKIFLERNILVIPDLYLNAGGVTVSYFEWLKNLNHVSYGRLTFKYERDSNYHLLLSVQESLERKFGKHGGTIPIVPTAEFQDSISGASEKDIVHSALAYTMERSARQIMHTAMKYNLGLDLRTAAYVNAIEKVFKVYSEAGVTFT
Chain of hGDH2 (human glutamate dehydrogenase isozyme 2) (Homo sapiens, UniProt P49448, C172A) (P49448 54-558 C172A): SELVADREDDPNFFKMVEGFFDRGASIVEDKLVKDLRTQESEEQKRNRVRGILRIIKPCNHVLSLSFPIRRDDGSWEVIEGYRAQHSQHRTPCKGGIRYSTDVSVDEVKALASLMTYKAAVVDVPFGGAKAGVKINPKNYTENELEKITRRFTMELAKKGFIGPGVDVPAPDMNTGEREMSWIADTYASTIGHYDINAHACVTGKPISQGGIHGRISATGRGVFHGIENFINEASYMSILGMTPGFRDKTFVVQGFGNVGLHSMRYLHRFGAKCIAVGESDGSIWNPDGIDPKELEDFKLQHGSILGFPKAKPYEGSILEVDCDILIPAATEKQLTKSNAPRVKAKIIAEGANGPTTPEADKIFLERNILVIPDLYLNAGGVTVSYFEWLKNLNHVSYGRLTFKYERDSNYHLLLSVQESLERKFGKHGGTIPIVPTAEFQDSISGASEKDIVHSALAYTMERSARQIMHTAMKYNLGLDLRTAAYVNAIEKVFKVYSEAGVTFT
Chain of hGDH2 (human glutamate dehydrogenase isozyme 2) (Homo sapiens, UniProt P49448) (P49448 54-558): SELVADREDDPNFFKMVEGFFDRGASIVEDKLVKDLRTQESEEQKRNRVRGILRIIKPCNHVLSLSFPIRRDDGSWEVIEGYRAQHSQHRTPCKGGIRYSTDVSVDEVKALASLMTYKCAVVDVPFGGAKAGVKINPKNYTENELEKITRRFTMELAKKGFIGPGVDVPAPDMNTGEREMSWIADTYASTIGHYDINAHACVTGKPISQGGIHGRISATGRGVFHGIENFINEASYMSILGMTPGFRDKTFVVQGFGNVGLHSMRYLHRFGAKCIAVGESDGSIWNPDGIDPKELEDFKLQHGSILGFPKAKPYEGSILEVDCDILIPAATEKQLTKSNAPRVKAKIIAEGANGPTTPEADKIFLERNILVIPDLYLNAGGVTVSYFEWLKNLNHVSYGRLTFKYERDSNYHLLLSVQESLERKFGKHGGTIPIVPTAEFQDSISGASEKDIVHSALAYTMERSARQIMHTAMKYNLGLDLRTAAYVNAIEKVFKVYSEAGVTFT

Regarding `CCCCCCCCCCCCCCCC(=O)SCCNC(=O)CCNC(=O)[C@H](O)C(C)(C)COP(=O)(O)OP(=O)(O)OC[C@H]1O[C@@H](n2cnc3c(N)ncnc32)[C@H](O)[C@@H]1OP(=O)(O)O` [palmitoyl-CoA], the 50% inhibitory concentration (IC50) is 1820 nM in experiment [1]; 2600 nM in experiment [2]; 2310 nM in experiment [3]; 1980 nM in experiment [4]; 2470 nM in experiment [5]; 2150 nM in experiment [6].

For the origin of these results see PMC4133811 (BMB Reports, 2012).
